Experimental data published in patent US20250360166A1, “Cisplatin particles and uses thereof” (CRITITECH, INC., priority 2021, published 2025).

Legend:
H69 tumor cells = assay: SCP-Cisplatin pilot study, subcutaneous H69 tumor in NCr nu/nu mice, single intra-tumoral injection; type: in vivo
Protocol: 55 CR female NCr nu/nu mice 8-12 weeks of age at start date were injected subcutaneously in the flank with 1×10^7 H69 tumor cells in 50% Matrigel; cell injection volume was 0.1 mL/mouse. A pair match was performed when tumors reach an average size of 100-150 mm^3, after which treatment was initiated as detailed in Table 2.
Tumor cells implanted on Day 0 and treatments initiated on Day 18 (Mean TV=126 mm^3). There were 5 treatment groups (n=5/group); all receiving IT injections =25 uL; 27G needle. The IT vehicle group was administered ethanol/glycerin/water. Animals were sacrificed at humane endpoint of TV=2000 mm^3 or Study Day 51.

[1] = Particle size distribution by laser diffraction (Malvern Mastersizer 3000, Hydro MV); type: physicochemical; settings: dispersed in ethyl acetate
Protocol: Particle size analyses were conducted on a Malvern Mastersizer™ 3000 using the Hydro MV dispersion unit. A non-validated general PSD method/dispersant method was used to analyze the cisplatin samples. The sample preparation procedure performed was as follows: Weigh 10 to 20 mg of cisplatin into a 30-mL vial, add 20 mL of ethyl acetate. Disperse the sample by vortexing then sonicating the suspension in an ultrasonic bath for 1 minute. Then transfer the sample suspension to the Malvern Hydro MV dispersion unit to obtain obscuration between 5 and 15%.

[2] = Specific surface area by BET sorptometry; type: physicochemical
From the text: The BET specific surface area test procedure is a compendial method included in both the United States Pharmaceopeia and the European Pharmaceopeia.

[3] = Bulk density (10 mL graduated cylinder, modified USP <616> Method I); type: physicochemical; settings: not tapped
Protocol: As used herein, the bulk density of the cisplatin particles is the mass of the totality of particles in the composition divided by the total volume they occupy when poured into a graduated cylinder and not tapped. The total volume includes particle volume, inter-particle void volume, and internal pore volume.
Bulk density analyses were conducted using a 10 mL graduated cylinder due to low sample volume.

Compound	tumor volume of surviving animals on Day 51 (H69 tumor cells; 25 μg/animal intra-tumoral qd × 1)	animals survived on Day 51 (H69 tumor cells; 25 μg/animal intra-tumoral qd × 1, n=5, endpoint TV=2000 mm^3 or Day 51)	PSD-Master sizer Dv10 [1]	PSD-Master sizer Dv50 [1]	PSD-Master sizer Dv90 [1]	Surface Area [2]	Bulk Density [3]
N.N.[Cl][Pt][Cl] [Cisplatin]	increasing tumor volume	3 of 5					
N.N.[Cl][Pt][Cl] [Raw, Cisplatin]			1.72 μm	10.9 μm	25.9 μm	2.44 m^2/g	1.01 g/mL
